Measured values as given in patent US10251881B2, “Particulate materials” (priority 2002, dated 2019).
Where a name gives a salt, the structure may show the parent alone.

How the values were obtained:
Type in all cases: physicochemical
[1] = Particle size of the powders (AEROSIZER, SYMPATEC); settings: powder; for MMAD: AEROSIZER
Excerpt: Particle sizes may be measured for instance using (a) an AEROSIZER™ time-of-flight instrument (which gives an aerodynamic equivalent particle diameter, MMAD) or (b) a laser diffraction sensor such as the HELOS™ system available from SYMPATEC™ GmbH, Germany (which provides a geometric projection equivalent MMD). MMADs may also be assessed using a cascade impactor. Volume mean diameters may be obtained in both cases using commercially available software packages.

[2] = Flocculation volume of particulate drug suspended in propellant (HFA 134a or HFA 227ea)
Excerpt: Flocculation volume, sometimes referred to as “sedimentation volume”, can be measured by a conventional and relatively simple method. The substance under test, in particulate form, is suspended in the desired fluid vehicle at a suitable concentration. The mixture should be well agitated (typically, simply by shaking) to ensure a uniform dispersion of particles in the fluid at the start of measurement. Immediately after agitation ceases, timing begins. The mixture is left to stand, usually under ambient conditions, and the degree of settling or creaming of the solid observed over time. The flocculation volume of the mixture at a given point in time is the volume of fluid which is still occupied by the particulate dispersion, expressed as a percentage of the total fluid volume. A higher flocculation volume thus indicates less settling/creaming, which indicates improved performance. All references herein to flocculation volumes, unless otherwise stated, are to measurements made at 22° C. […] Measurements were taken at 22° C.

[3] = Particle size of the powders (AEROSIZER, SYMPATEC)
[4] = HFA 134a, 1% w/v, 22° C., after 10 minutes
[5] = HFA 134a, averaged over the first 2 minutes
[6] = HFA 227ea, averaged over the first 2 minutes
[7] = HFA 134a, averaged over the first minute
[8] = HFA 227ea, 1% w/v, 22° C., after 5 minutes
[9] = HFA 227ea, averaged over the first minute
[10] = HFA 227ea, 1% w/v, 22° C., after 10 minutes
[11] = HFA 227ea, 1% w/v, 22° C., after 1 minute

Row | Compound | MMD ([1]; SYMPATEC) [μm] | flocculation volume [2, 4] | rate of change in flocculation volume (flocculation rate) [2, 5] [% per minute] | rate of change in flocculation volume (flocculation rate) [2, 6] [% per minute] | other results
1 | CCCCCCCCCCCCCCCC(=O)OC1CCCn2c1nc(C)c(CCN1CCC(c3noc4cc(F)ccc34)CC1)c2=O (single isomer, unassigned) [risperidone-(9-hydroxy)-palmitate sample A] | 2.95 | 100% | 0 | −2.5 | 
2 | CCCCCCCCCCCCCCCC(=O)OC1CCCn2c1nc(C)c(CCN1CCC(c3noc4cc(F)ccc34)CC1)c2=O (single isomer, unassigned) [risperidone-(9-hydroxy)-palmitate sample B] | 2.5 | 100% | 0 | −3 | 
3 | CCCCCCCCCCCCCCCC(=O)OC1CCCn2c1nc(C)c(CCN1CCC(c3noc4cc(F)ccc34)CC1)c2=O (single isomer, unassigned) [risperidone-(9-hydroxy)-palmitate sample C] | 3.5 | greater than 80% | −1 | −3 | 
4 | CN1C[C@H](C(=O)N[C@]2(C)O[C@@]3(O)[C@@H]4CCCN4C(=O)[C@H](Cc4ccccc4)N3C2=O)C[C@@H]2c3cccc4[nH]cc(c34)C[C@H]21 [DHE SEDS® product, dihydroergotamine mesylate] |  |  |  | 0 | MMAD [1]: 1.25 μm; flocculation volume [2, 10]: 100%; creaming ([2]; HFA 227ea, after 24 hours standing): no visible creaming
5 | CN1C[C@H](C(=O)N[C@]2(C)O[C@@]3(O)[C@@H]4CCCN4C(=O)[C@H](Cc4ccccc4)N3C2=O)C[C@@H]2c3cccc4[nH]cc(c34)C[C@H]21 [DHE micronized sample, dihydroergotamine mesylate] |  |  |  |  | MMD ([1]; instrument not stated): 15.1 μm; flocculation volume [2, 11]: less than 20%; flocculation volume [2, 8]: less than 10%; rate of change in flocculation volume (flocculation rate) [2, 9]: −90 % per minute
6 | CC(C)C[C@H]1C(=O)N2CCC[C@H]2[C@]2(O)O[C@](NC(=O)[C@@H]3C=C4c5cccc6[nH]c(Br)c(c56)C[C@H]4N(C)C3)(C(C)C)C(=O)N12 [bromocriptine mesylate sample B, Bromocriptine mesylate] |  | 53% |  |  | flocculation volume [2, 10]: 95%
7 | CN1C[C@H](C(=O)N[C@]2(C)O[C@@]3(O)[C@@H]4CCCN4C(=O)[C@H](Cc4ccccc4)N3C2=O)C[C@@H]2c3cccc4[nH]cc(c34)C[C@H]21 [crystalline DHE (Examples 9), dihydroergotamine mesylate] |  |  |  |  | VMD ([1]; SYMPATEC): 2.8 μm; bulk powder density [3]: 0.14 g/mL
8 | CCC(=O)O[C@]1(C(=O)SCF)[C@H](C)C[C@H]2[C@@H]3C[C@H](F)C4=CC(=O)C=C[C@]4(C)[C@@]3(F)[C@@H](O)C[C@@]21C [fluticasone propionate sample B, fluticasone propionate] | 5.6 | greater than 90% | −1 | −0.5 | 
9 | CCCCCCCCCCCCCCCC(=O)OC1CCCn2c1nc(C)c(CCN1CCC(c3noc4cc(F)ccc34)CC1)c2=O (centres unmarked) [risperidone-(9-hydroxy)-palmitate] |  |  |  |  | MMD ([1]; instrument not stated): 8.1 μm; flocculation volume ([2]; HFA 134a, 1% w/v, 22° C., after 1 minute): less than 20%; rate of change in flocculation volume (flocculation rate) [2, 7]: −152 % per minute; flocculation volume [2, 11]: less than 20%; rate of change in flocculation volume (flocculation rate) [2, 9]: −117 % per minute
10 | CC(C)(C)NCC(O)c1ccc(O)c(CO)c1 (centres unmarked) [salbutamol micronized sample, salbutamol] |  |  |  |  | MMD ([1]; instrument not stated): 14.5 μm; flocculation volume ([2]; HFA 134a, 1% w/v, 22° C., after 2 minutes): less than 20%; rate of change in flocculation volume (flocculation rate) [2, 7]: −84 % per minute; flocculation volume ([2]; HFA 227ea, 1% w/v, 22° C., after 2 minutes): less than 20%; rate of change in flocculation volume (flocculation rate) [2, 9]: −55 % per minute

Further lines, with some results ahead:

Row | MMD ([1]; SYMPATEC) [μm] | flocculation volume [2, 4] | rate of change in flocculation volume (flocculation rate) [2, 5] [% per minute] | rate of change in flocculation volume (flocculation rate) [2, 6] [% per minute] | Compound | other results
11 |  |  | −3 | −11 | OCc1cc(C(O)CNCCCCCCOCCCCc2ccccc2)ccc1O (single isomer, unassigned) [salmeterol xinafoate sample A, Salmeterol xinafoate] | MMAD [1]: 5.3 μm
12 |  | greater than 98% | −0.2 | −19 | OCc1cc(C(O)CNCCCCCCOCCCCc2ccccc2)ccc1O (single isomer, unassigned) [salmeterol xinafoate sample B, salmeterol xinafoate] | MMAD [1]: 1.6 μm; flocculation volume ([2]; HFA 134a, after 24 hours standing): greater than 98%
13 |  | 30% |  |  | OCc1cc(C(O)CNCCCCCCOCCCCc2ccccc2)ccc1O (single isomer, unassigned) [salmeterol xinafoate sample C, salmeterol xinafoate] | MMAD [1]: 1.1 μm; flocculation volume ([2]; HFA 134a, 1% w/v, 22° C., after 3 minutes): below 40%; rate of change in flocculation volume (flocculation rate) [2, 7]: −38 % per minute; flocculation volume [2, 8]: below 35%; rate of change in flocculation volume (flocculation rate) [2, 9]: −53 % per minute
14 | 2.3 | about 50% | −20 |  | CCC(=O)O[C@]1(C(=O)SCF)[C@H](C)C[C@H]2[C@@H]3C[C@H](F)C4=CC(=O)C=C[C@]4(C)[C@@]3(F)[C@@H](O)C[C@@]21C [fluticasone propionate sample A, fluticasone propionate] | 
15 | 2.3 |  |  | 0 | CCC(=O)O[C@]1(C(=O)SCF)[C@H](C)C[C@H]2[C@@H]3C[C@H](F)C4=CC(=O)C=C[C@]4(C)[C@@]3(F)[C@@H](O)C[C@@]21C [fluticasone propionate sample C, fluticasone propionate] | 
16 |  | below 30% |  |  | CCC(=O)O[C@]1(C(=O)SCF)[C@H](C)C[C@H]2[C@@H]3C[C@H](F)C4=CC(=O)C=C[C@]4(C)[C@@]3(F)[C@@H](O)C[C@@]21C [fluticasone propionate sample D, fluticasone propionate] | MMD ([1]; instrument not stated): 2.0 μm; rate of change in flocculation volume (flocculation rate) [2, 7]: −68 % per minute; flocculation volume ([2]; HFA 227ea, 1% w/v, 22° C., after 3 minutes): less than 30%; rate of change in flocculation volume (flocculation rate) [2, 9]: −40 % per minute
17 | 3.95 | greater than 70% | −10 | −5 | Salbutamol sulphate [salbutamol sulphate SEDS® product] | flocculation volume ([2]; HFA 227ea, 1% w/v, 22° C., after 8 minutes): greater than 70%; flocculation volume [2, 10]: greater than 60%
